Laboratory results taken from PubChem BioAssay (NCI).
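Five compound concentrations were applied to cells in 96-well plates for 48 hours; endpoints were derived by simple linear interpolation of the resulting dose-response curve. GI50 = concentration required for 50% inhibition of growth. TGI is the concentration that stops growth completely.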

Legend:
Assay in all cases: inhibition of tumour cell growth, NCI panel, 48 h
[1] = test system: NCI-H23 lung
[2] = test system: UACC-62 melanoma
[3] = test system: SW-620 colon
[4] = test system: SF-295 CNS
[5] = test system: SK-MEL-5 melanoma
[6] = test system: NCI-H522 lung
[7] = test system: OVCAR-4 ovarian
[8] = test system: HCT-15 colon
[9] = test system: A498 renal
[10] = test system: SK-MEL-2 melanoma
[11] = test system: IGROV1 ovarian
[12] = test system: NCI-H226 lung
[13] = test system: CAKI-1 renal
[14] = test system: CCRF-CEM leukemia
[15] = test system: HOP-92 NSCLC
[16] = test system: OVCAR-3 ovarian
[17] = test system: 786-0 renal
[18] = test system: COLO 205 colon
[19] = test system: SK-OV-3 ovarian
[20] = test system: SR leukemia
[21] = test system: LOX IMVI melanoma
[22] = test system: PC-3 prostate
[23] = test system: SK-MEL-28 melanoma
[24] = test system: MCF7 breast
[25] = test system: NCI/ADR-RES ovarian
[26] = test system: RPMI-8226 leukemia
[27] = test system: HL-60(TB) leukemia
[28] = test system: MOLT-4 leukemia
[29] = test system: SNB-75 CNS

Q: `O=C(Nc1n[nH]c2nc(-c3ccc(O)cc3)c(Br)cc12)C1CC1` was tested. Which GI50 [1] did it give?
A: 4.78 µM

Q: And the TGI [1]?
A: 16.8 µM

Q: And the GI50 [2]?
A: 4.26 µM

Q: What about the TGI [2] of the same compound?
A: 11.9 µM

Q: What about the GI50 [3] of the same compound?
A: 4.36 µM

Q: And the TGI [3]?
A: > 25 µM

Q: And the GI50 [4]?
A: 2.38 µM

Q: And the TGI [4]?
A: 14.8 µM

Q: What about the GI50 [5] of the same compound?
A: 0.607 µM

Q: And the TGI [5]?
A: 4.07 µM

Q: What about the GI50 [6] of the same compound?
A: 4.33 µM

Q: What about the TGI [6] of the same compound?
A: 12.1 µM

Q: What about the GI50 [7] of the same compound?
A: 5.17 µM

Q: And the TGI [7]?
A: 14.4 µM

Q: What about the GI50 [8] of the same compound?
A: 3.77 µM

Q: And the TGI [8]?
A: > 23.2 µM

Q: What about the GI50 [9] of the same compound?
A: 4.65 µM

Q: What about the TGI [9] of the same compound?
A: 14.4 µM

Q: And the GI50 [10]?
A: 3.07 µM

Q: And the TGI [10]?
A: 7.17 µM

Q: What about the GI50 [11] of the same compound?
A: 5.75 µM

Q: And the TGI [11]?
A: > 20.6 µM

Q: And the GI50 [12]?
A: 3.14 µM

Q: And the TGI [12]?
A: 13.5 µM

Q: What about the GI50 [13] of the same compound?
A: 3.11 µM

Q: What about the TGI [13] of the same compound?
A: 16.5 µM

Q: And the GI50 [14]?
A: 1.82 µM

Q: And the TGI [14]?
A: > 25 µM

Q: What about the GI50 [15] of the same compound?
A: 8.66 µM

Q: And the TGI [15]?
A: 18.3 µM

Q: What about the GI50 [16] of the same compound?
A: 1.39 µM

Q: What about the TGI [16] of the same compound?
A: 9.14 µM

Q: And the GI50 [17]?
A: 4.55 µM

Q: And the TGI [17]?
A: 14.3 µM

Q: And the GI50 [18]?
A: 3.18 µM

Q: And the TGI [18]?
A: 8.76 µM

Q: And the GI50 [19]?
A: 2.67 µM

Q: What about the TGI [19] of the same compound?
A: 11.8 µM

Q: And the GI50 [20]?
A: 1.53 µM

Q: What about the TGI [20] of the same compound?
A: > 15.4 µM

Q: And the GI50 [21]?
A: 1.75 µM

Q: What about the TGI [21] of the same compound?
A: 13.1 µM

Q: And the GI50 [22]?
A: 4.49 µM

Q: What about the TGI [22] of the same compound?
A: > 23.4 µM

Q: What about the GI50 [23] of the same compound?
A: 3.85 µM

Q: And the TGI [23]?
A: 9.88 µM

Q: What about the GI50 [24] of the same compound?
A: 1.05 µM

Q: And the TGI [24]?
A: 10.2 µM

Q: What about the GI50 [25] of the same compound?
A: 6.49 µM

Q: And the TGI [25]?
A: > 25 µM

Q: What about the GI50 [26] of the same compound?
A: 6.05 µM

Q: What about the TGI [26] of the same compound?
A: 15.7 µM

Q: What about the GI50 [27] of the same compound?
A: 2.79 µM

Q: And the TGI [27]?
A: 15.4 µM

Q: And the GI50 [28]?
A: 5.13 µM

Q: What about the TGI [28] of the same compound?
A: > 25 µM

Q: And the GI50 [29]?
A: 6.21 µM

Q: And the TGI [29]?
A: 12.5 µM
